Data taken from US20010053773A1, “Method for inhibiting the growth of cancers” (The Procter & Gamble Company, priority 1998, published 2001).

Test system: breast cancer
Assay: mouse model for breast cancer, tumor mass and regrowth
Assay type: in vivo
Conditions: for tumor regrowth / change in tumor mass on estrogen stimulation: stimulated with estrogen at day 115; for tumor size and regrowth: followed to 180 days
Experimental: Carbendazim is administered to the mice at 4000, 5000, and 6000 mg/kg of body weight in a separate leg.

Row | SMILES | tumor regrowth (cytoxan treated control, no carbendazim) | tumor regrowth / change in tumor mass on estrogen stimulation | tumor size and regrowth (carbendazim at 4000, 5000 and 6000 mg/kg given after 130 days to mice that had been treated with cytoxan) | dose dependence of tumor growth (carbendazim at 4000, 5000 and 6000 mg/kg of body weight) | tumor size and regrowth (carbendazim at 4000, 5000 and 6000 mg/kg of body weight in a separate leg)
1 | O=P1(N(CCCl)CCCl)NCCCO1 (stereo not drawn) [cytoxan] | tumor regrowth after 100 days | rapid regrowth |  |  | 
2 | COC(=O)Nc1nc2ccccc2[nH]1 [Carbendazim, 2-methoxycarbonylamino-benzimidazole] |  | no significant change in tumor mass | The tumor continued to decrease in size and its regrowth was limited even after 180 days | dose dependent | The tumor continued to decrease in size and its regrowth was limited even after 180 days
